Data published in ChEMBL document CHEMBL3886808, “Pyrrolidine derivatives and their use as complement pathway modulators” (2016).

Target: Complement factor D (Homo sapiens, UniProt P00746)
Test: In Vitro Assay: Recombinant human factor D (expressed in E. coli and purified using standard methods) at 10 nM concentration is incubated with test compound at various concentrations for 1 hour at room temperature in 0.1 M Hepes buffer, pH 7.5, containing 1 mM MgCl2, 1 M NaCl and 0.05% CHAPS. A synthetic substrate Z-Lys-thiobenzyl and 2,4-dinitrobenzenesulfonyl-fluoresceine are added to final concentrations of 200 μM and 25 μM, respectively. The increase in fluorescence is recorded at excitation of 485 nm and emission at 535 nm in a microplate spectrofluorimeter.

Complement factor D, sequence (P00746 whole entry): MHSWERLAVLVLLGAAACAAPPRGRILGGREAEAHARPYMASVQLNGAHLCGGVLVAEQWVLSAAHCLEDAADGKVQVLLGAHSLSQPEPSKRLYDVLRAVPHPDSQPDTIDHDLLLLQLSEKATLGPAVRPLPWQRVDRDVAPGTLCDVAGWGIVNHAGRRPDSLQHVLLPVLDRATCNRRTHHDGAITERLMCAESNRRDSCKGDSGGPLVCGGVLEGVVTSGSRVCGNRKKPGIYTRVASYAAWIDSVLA

Row | Structure (SMILES) | IC50 [nM]
1 | CC(F)(F)CCNC(=O)[C@@H]1C[C@H]2C[C@H]2N1C(=O)Cn1nc(C(N)=O)c2ccccc21 | 1050
2 | CC(=O)c1nn(CC(=O)N2[C@@H]3C[C@@H]3C[C@H]2C(=O)NCCCC(F)(F)F)c2ncccc12 | 1140
